Assay results: the CATMoS acute toxicity set (Mansouri et al. 2021)

Test: GHS categories as the set defines them, by LD50: 1 up to 5, 2 up to 50, 3 up to 300, 4 up to 2000, 5 above 2000 mg/kg
Conditions: rat; in vivo; po

| Compound | GHS category |
| --- | --- |
| Nc1ccc(S(=O)(=O)c2ccc(NCCO)cc2)cc1 | 5 |
| CC(=O)OC1CC(C)CCC1C(C)C (stereo unspecified) | 5 |
| O=C(CC(=O)c1ccccc1)c1ccccc1 | 5 |
| O=P(Oc1ccccc1)(Oc1ccccc1)Oc1cccc(OP(=O)(Oc2ccccc2)Oc2ccccc2)c1 | 5 |
| O=C1CN2CCOC2(c2ccccc2F)c2cc(Cl)ccc2N1CCO (stereo unspecified) | 5 |
| COc1cc(Cl)c(OC)cc1Cl | 5 |
| CC1OC(Cn2cncn2)(c2cc3ccccc3o2)OC1C (stereo unspecified) | 4 |
| Cc1nn(C)c(O)c1C(=O)c1ccc(C(F)(F)F)cc1S(C)(=O)=O | 5 |
| FC1(F)COC1(F)F | 4 |
| CCCCCCCCCCSCCN1CCCC1=O | 5 |
| CCCCCCCCCCCCCCOC(=O)CCCCCCCCCCCCC | 5 |
| CCOC(=O)CC(CC(C)=O)C(=O)OCC (stereo unspecified) | 5 |
| CCCCCCCCCC(=O)N(C)C | 5 |
| CCc1cc(Cc2cc(CC)cc(C(C)(C)C)c2O)c(O)c(C(C)(C)C)c1 | 5 |
| FC(F)(F)c1cccc(-n2nc(OCCN3CCCCCC3)c3cccnc32)c1 | 4 |
| CCCCCOC=O | 5 |
| Cc1c(C)c2c(c(C)c1O)CCC(C)(CCCC(C)CCCC(C)CCCC(C)C)O2 (racemic) | 5 |
| O=C(Nc1ccc(NC(=O)c2cc3ccccc3c(N=Nc3ccc(Cl)cc3[N+](=O)[O-])c2O)c(Cl)c1)c1cc2ccccc2c(N=Nc2ccc(Cl)cc2[N+](=O)[O-])c1O | 5 |
| COc1ccccc1N1CCN(CC(O)COc2cccc3ccccc23)CC1 (stereo unspecified) | 5 |
| CCO[Si](CCCCl)(OCC)OCC | 5 |
| C=C(C)CCC[C@H](C)CCOC(=O)Cc1ccccc1 | 5 |
| CC/C=C\CCCCCCCCOC(C)=O | 5 |
| NCCCC[C@H](N[C@@H](CCc1ccccc1)C(=O)O)C(=O)N1CCC[C@H]1C(=O)O | 5 |
| NC(=O)Oc1ccccc1C(=O)Oc1cc(Cl)ccc1Cl | 5 |
| CCSc1nc(N)c2c(C)coc2n1 | 5 |
| Cc1onc(-c2ccccc2)c1C(=O)N[C@@H]1C(=O)N2[C@@H]1SC(C)(C)[C@@H]2C(=O)O | 5 |

| Compound | GHS category |
| --- | --- |
| CCCCCCCCCCC=O | 5 |
| N#CCN(CC#N)CC#N | 3 |
| CCOC(=O)Oc1ccc(C2(c3ccc(OC(=O)OCC)cc3)C(=O)Nc3c(C)cccc32)cc1 | 5 |
| OCCOc1nn(-c2cccc(C(F)(F)F)c2)c2ncccc12 | 4 |
| CC(C)=CCC/C(C)=C/COCC=O | 5 |
| O=C(O)c1ccccc1Nc1ccc(Cl)c2ccccc12 | 5 |
| COc1n[nH]c(=O)n1C | 5 |
| CCOCC1COC(Cn2cncn2)(c2cc3ccccc3o2)O1 (stereo unspecified) | 4 |
| CNC(=O)C(=NNc1ccc(OC)cc1[N+](=O)[O-])C(C)=O | 5 |
| C=C(C)C1CCC(C)=C1CC(C)(C)COC(=O)CC (stereo unspecified) | 5 |
| CCCC1(C)COC(Cn2cncn2)(c2cc3ccccc3o2)OC1 (stereo unspecified) | 4 |
| Nc1cc(C(=O)NCC(O)CO)cc(C(=O)NCC(O)CO)c1 (stereo unspecified) | 5 |
| C=CC(=C)C | 5 |
| CCOC(=O)C(=O)Nc1cc(SCCOCCOC)ncn1 | 4 |
| COC(=O)CCC(=O)OC | 5 |
| CCCCCCOC(=O)C(C)(C)C | 5 |
| CN1CCN(CC(=O)N2c3ccccc3C(=O)Nc3cccnc32)CC1 | 5 |
| NC(N)=N[C@@H](CS)C(=O)O | 5 |
| CC(C)=CCCC(C)C=O (stereo unspecified) | 5 |
| CCCCCCCC(=O)OCCC(C)C | 5 |
| CCCCCCCN(CCCCCCC)CC(O)c1cc2ccccc2c2cc(Br)ccc12 (stereo unspecified) | 5 |
| CC(C)C1=CC23CCC4C(C)(C(=O)N5CCNCC5)CCCC4(C)C2CC1C1C(=O)OC(=O)C13 (stereo unspecified) | 5 |
| CN1C(=O)CCc2ccc(OCCCN3CCC(Cc4ccccc4)CC3)cc21 | 4 |
| CS/C(=N\O)C(=O)N(C)C | 5 |
| CCC(=O)OC(C)(C)Cc1ccccc1 | 5 |
